According to patent publication US20220142958A1, “MEDICINAL COMPOSITION HAVING EXCELLENT STABILITY” (EA Pharma Co., Ltd., priority 2019, published 2022):

Assays:
[1] = Example 1B: residual ratio of Compound A1 at 2 concentrations stored at 5° C.; format: physicochemical
Description: According to Table 3 below, Compound A1 was dissolved in each of the buffer solutions at 2 concentrations. Each of these solutions was dispensed into a glass vial and stored at 5° C. After the storage, a residual ratio of Compound A1 was calculated according to a test method described below.
(§1) Test method: In the solution after the storage, the residual ratio was analyzed according to a normal method using a liquid chromatography apparatus Prominence (manufactured by Shimadzu Corporation) and an ultraviolet absorptiometer (measurement wavelength: 254 nm, Prominence (manufactured by Shimadzu Corporation)). At this time, SUMIPAX ODS (3 mm×150 mm, 5 μm, manufactured by SCAS) was used as a column.
The residual ratio (%) of Compound A1 during each storage period at 5° C. was calculated as follows.
Residual ratio (%) of Compound A1 during each storage period=peak area of Compound A1 in sample solution/sum of peak area of sample solution×100

[2] = Example 4A: residual ratio and reaction rate constant after storage at 60° C.; format: physicochemical; conditions: for Reaction rate constant at 60° C. / Residual ratio (%): 0.1 mg/mL
Description: Compound A1 was dissolved in each of the buffer solutions shown in Table 10 so that a concentration was 0.1 mg/mL. Each of these solutions was dispensed into a glass vial and stored at 60° C. After the storage, a residual ratio was calculated according to a test method described below.
as §1
The calculation for obtaining the residual ratio (%) of Compound A1 during each storage period is as follows.
Residual ratio (%) of Compound A1 during each storage period=peak area of Compound A1 in sample solution/peak area of Compound A1 in standard solution×100
Here, “Compound A1 in standard solution” refers to a solution obtained by dissolving Compound A1 in each of the buffer solutions shown in Table 10 so that a concentration was 0.1 mg/mL, and then storing the solution at 5° C. It was clear from the results of Example 1 that the solution of Compound A1 was stable when being stored at 5° C., and thus, the solution was used as the standard solution.
The reaction rate constant at 60° C. was calculated using the obtained residual ratio.

male beagles = assay: Emetogenicity of Compound A1 in dogs; format: in vivo, dog; conditions: for Number of vomiting cases/Number of administration: Intravenous
Description: A crossover trial was conducted with male beagles (Nosan Beagle, 14 to 87-month-old, weight: 10.2 kg to 15.8 kg). The Compound A1 solutions used in Reference Example 2 were given at 0.3, 1 and 10 mg/kg by bolus administration (0.5 mL/kg, 1 mL/sec) to 3 to 6 dogs per dose to confirm the manifestation of vomiting immediately after the administration. Administration was conducted once or twice a week with an interval of 2 days or longer. Administration was conducted prior to feeding. Symptoms prior to, immediately after, and 15 and 30 minutes after the administration were observed.

[3] = system: SHPT patients on maintenance hemodialysis; assay: Phase I/II clinical trial, repeated administration; format: in vivo, human; conditions: for percentage decrease in the serum iPTH concentration: Day 22 (three days after the ninth administration)
Description: Targeting SHPT patients on maintenance hemodialysis, pharmacokinetics, pharmacodynamics and safety upon single or repeated intravenous administration of Compound A1 were examined by conducting a double-blind test using a placebo as a control.
Repeated administration: Based on the clinically effective dose calculated in Reference Example 5, the doses were given in 3 steps, namely, 0.05 mg, 0.1 mg, and 0.2 mg. The trial drug was (intravenously) infused from the venous side of the dialysis circuit before the end of dialysis three times a week for 22 days (total of 9 times) starting from the first day of administration of the trial drug. Here, the trial drug was administered by diluting a required dose taken from the Compound A1 vial formulation prepared as follows with sterilized water for injection, and filling a syringe with the resultant in accordance with the dose to be administered.
Each item was evaluated according to the predetermined evaluation schedule.
A vial formulation encapsulating 1 mg of Compound A1 in terms of a dehydrate, and sodium chloride, disodium hydrogen phosphate dodecahydrate, and sodium dihydrogen phosphate dihydrate as additives in 10 ml of sterilized water for injection

Cc1c(Cl)cc(S(=O)(=O)[O-])cc1NC(=O)NC[C@H](N)C(=O)O.[Na+] [Compound A1, sodium 3-{[(2S)-2-amino-2-carboxyethyl]carbamoylamino}-5-chloro-4-methylbenzenesulfonate]
Residual ratio (%) ([1]; 0.1 mg/mL, pH 1.1, 5° C., 23 hours): 100%
Residual ratio (%) ([1]; 0.1 mg/mL, pH 1.1, 5° C., 141 hours): 100%
Residual ratio (%) ([1]; 0.1 mg/mL, pH 1.1, 5° C., 570 hours): 100%
Residual ratio (%) ([1]; 0.1 mg/mL, pH 7.0, 5° C., 23 hours): 100%
Residual ratio (%) ([1]; 0.1 mg/mL, pH 7.0, 5° C., 141 hours): 100%
Residual ratio (%) ([1]; 0.1 mg/mL, pH 7.0, 5° C., 570 hours): 100%
Residual ratio (%) ([1]; 10 mg/mL, pH 1.1, 5° C., 23 hours): 100%
Residual ratio (%) ([1]; 10 mg/mL, pH 1.1, 5° C., 141 hours): 100%
Residual ratio (%) ([1]; 10 mg/mL, pH 1.1, 5° C., 570 hours): 100%
Residual ratio (%) ([1]; 10 mg/mL, pH 7.0, 5° C., 23 hours): 100%
Residual ratio (%) ([1]; 10 mg/mL, pH 7.0, 5° C., 141 hours): 100%
Residual ratio (%) ([1]; 10 mg/mL, pH 7.0, 5° C., 570 hours): 100%
stability of the formulation ([1]; pH of 1.1 and pH of 7.0, 5° C., regardless of the concentration): stable
Reaction rate constant at 60° C. ([2]; pH 1.1): 6.3 × 10^−4
Residual ratio (%) ([2]; pH 1.1, 60° C., 24 hours): 97.8%
Residual ratio (%) ([2]; pH 1.1, 60° C., 113 hours): 92.7%
Residual ratio (%) ([2]; pH 1.1, 60° C., 161 hours): 90.2%
Reaction rate constant at 60° C. ([2]; pH 2.0): 6.5 × 10^−4
Residual ratio (%) ([2]; pH 2.0, 60° C., 24 hours): 98.1%
Residual ratio (%) ([2]; pH 2.0, 60° C., 113 hours): 92.4%
Residual ratio (%) ([2]; pH 2.0, 60° C., 161 hours): 90.1%
Reaction rate constant at 60° C. ([2]; pH 3.0): 7.5 × 10^−4
Residual ratio (%) ([2]; pH 3.0, 60° C., 24 hours): 98.3%
Residual ratio (%) ([2]; pH 3.0, 60° C., 113 hours): 91.5%
Residual ratio (%) ([2]; pH 3.0, 60° C., 161 hours): 88.9%
Reaction rate constant at 60° C. ([2]; pH 4.0): 7.6 × 10^−4
Residual ratio (%) ([2]; pH 4.0, 60° C., 24 hours): 98.1%
Residual ratio (%) ([2]; pH 4.0, 60° C., 113 hours): 91.5%
Residual ratio (%) ([2]; pH 4.0, 60° C., 161 hours): 88.5%
Reaction rate constant at 60° C. ([2]; pH 5.0): 7.9 × 10^−4
Residual ratio (%) ([2]; pH 5.0, 60° C., 24 hours): 98.0%
Residual ratio (%) ([2]; pH 5.0, 60° C., 113 hours): 91.3%
Residual ratio (%) ([2]; pH 5.0, 60° C., 161 hours): 88.0%
Reaction rate constant at 60° C. ([2]; pH 6.0): 7.8 × 10^−4
Residual ratio (%) ([2]; pH 6.0, 60° C., 24 hours): 98.1%
Residual ratio (%) ([2]; pH 6.0, 60° C., 113 hours): 91.5%
Residual ratio (%) ([2]; pH 6.0, 60° C., 161 hours): 88.3%
Reaction rate constant at 60° C. ([2]; pH 7.0): 8.2 × 10^−4
Residual ratio (%) ([2]; pH 7.0, 60° C., 24 hours): 98.2%
Residual ratio (%) ([2]; pH 7.0, 60° C., 113 hours): 91.0%
Residual ratio (%) ([2]; pH 7.0, 60° C., 161 hours): 87.8%
change of reaction rate constant at 60° C. when the pH of the formulation was changed ([2]; pH 1.1 to 7.0): not significantly changed
Number of vomiting cases/Number of administration (male beagles; 0.3 mg/kg): 0/3
Number of vomiting cases/Number of administration (male beagles; 1 mg/kg): 0/3
Number of vomiting cases/Number of administration (male beagles; 10 mg/kg): 1/6
therapeutic margin with respect to vomiting (dog C0 vs human C0) (male beagles; dog 1 mg/kg vs human 0.1 mg/man): ≥ 430 times
percentage decrease in the serum iPTH concentration ([3]; 0.05 mg dose group): 8%
percentage decrease in the serum iPTH concentration ([3]; 0.1 mg dose group): 25%
percentage decrease in the serum iPTH concentration ([3]; 0.2 mg dose group): 36%
accumulating property ([3]; repeated administration): no accumulating property
elimination by dialysis ([3]; repeated administration): rapidly eliminated by dialysis
trough concentration before the dialysis following the longest interval ([3]; repeated administration): generally constant
decrease in the corrected Ca ([3]; repeated administration, 0.05 mg dose group (mild)): observed
decrease in the corrected Ca ([3]; repeated administration, 0.1 mg dose group): not observed
decrease in the corrected Ca ([3]; repeated administration, 0.2 mg dose group (mild)): observed
form present in the plasma ([3]; repeated administration, three times a week for 22 days): mainly as an unchanged substance
